The experiment has as its system rats with chronic heart failure induced by coronary artery ligation. Kind of experiment: Echocardiography and direct hemodynamic monitoring in rats with chronic heart failure induced by coronary artery ligation (Example 2). To be noted: 2 mg/kg/day oral, 8 weeks. Type of experiment: in vivo. Here is the method: Chronic heart failure was induced by coronary artery ligation in rats, and was confirmed by echocardiography, three weeks post-surgery. Three groups of rats were studied: (1) Chronic heart failure without clenbuterol (n=7); (2) chronic heart failure+clenbuterol (2 mg/kg/day; n=5); and (3) rats after sham operation (n=11). After 8 weeks of oral clenbuterol therapy, echocardiography and direct hemodynamic monitoring were performed. Rat hearts were then harvested for ex vivo left ventricular pressure-volume relationship (LVPVR) tracings, histologic (trichrome) sections, and molecular assays. Western analysis for myocardial calcium-handling proteins (ryanodine receptors (RyR), SERCA2a, phospholamban, and calcium-sodium exchanger) was assessed by densitometry.

Here are results for 1 compound from US20090088482A1, “Compositions and Methods For Treating Heart Failure” (The Trustees Of Columbia University In The City New York, priority 2003, published 2009).

Under “untreated CHF 27±5, Sham 12±3”, `CC(C)(C)NCC(O)c1cc(Cl)c(N)c(Cl)c1` (stereo not shown) [Clen, clenbuterol] yielded an LVEDP of 15±6 mmHg. Also, where the note is “untreated CHF 35±3, Sham 53±2”, the “LV fractional area change” value stood at 42±1%. Besides, where the note is “untreated CHF 94±2.8, Sham 114±3.3”, the LV pressure turned out to be 100±6 mmHg. The LVdP/dt (untreated CHF 2,570±384, Sham 3,728±193) is recorded as 3,250±325 mmHg/s.
